Source: ChEMBL document CHEMBL1201862, “PubChem BioAssay data set” (2004)
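Tested at 5 concentrations; 48 h exposure; 96-well plates; endpoints linearly interpolated, else capped at highest concentration. GI50 marks 50% less growth.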 Activity calls are given as the source filed them. Cut-off read from the data, not from the text of the source: active = GI50 up to about 1.1 µM and inactive = higher.

Legend:
Test in all cases: NCI-60 cell line screen, 48 h
[1] = system: MOLT-4
[2] = system: CAKI-1
[3] = system: MDA-MB-435
[4] = system: UACC-257
[5] = system: LOX IMVI
[6] = system: OVCAR-8
[7] = system: HOP-62
[8] = system: SNB-19
[9] = system: KM12
[10] = system: NCI-H23
[11] = system: Hs-578T
[12] = system: HCT-15
[13] = system: SF-268
[14] = system: SF-295
[15] = system: HL-60
[16] = system: HT-29
[17] = system: SR
[18] = system: OVCAR-4
[19] = system: NCI-H522

| Compound | GI50 [1] | GI50 [2] | GI50 [3] | GI50 [4] | GI50 [5] | GI50 [6] | GI50 [7] | GI50 [8] | GI50 [9] | GI50 [10] | GI50 [11] | GI50 [12] [µM] | GI50 [13] | GI50 [14] | GI50 [15] | GI50 [16] | GI50 [17] | GI50 [18] | GI50 [19] |
| --- | --- | --- | --- | --- | --- | --- | --- | --- | --- | --- | --- | --- | --- | --- | --- | --- | --- | --- | --- |
| COc1ccc(/C=N\N2CC(=O)N3C4C=CC(CC4)N3C2=O)cc1 (stereo not drawn) | > 100 µM (inactive) | > 100 µM (inactive) | > 100 µM (inactive) | > 100 µM (inactive) | > 100 µM (inactive) | 58.1 µM (inactive) | 46.7 µM (inactive) | > 100 µM (inactive) | > 100 µM (inactive) | > 100 µM (inactive) | 46.3 µM (inactive) | > 100 | 88.7 µM (inactive) | > 100 µM (inactive) | 53.1 µM (inactive) | > 100 µM (inactive) | > 100 µM (inactive) |  |  |
| Cn1c2ccccc2c(=O)c2cccc(C(=O)NC(CS)C(=O)O)c21 (stereo not drawn) | 63.4 µM (inactive) | 32.8 µM (inactive) | > 100 µM (inactive) | > 100 µM (inactive) | 53.6 µM (inactive) | > 100 µM (inactive) | > 100 µM (inactive) | > 100 µM (inactive) | > 100 µM (inactive) | > 100 µM (inactive) | > 100 µM (inactive) | > 100 | 93.5 µM (inactive) | > 100 µM (inactive) | < 0.01 µM (active) | > 100 µM (inactive) | 52.8 µM (inactive) | > 100 µM (inactive) |  |
| Cc1ccc(O)c(C2=CC3=NNC(=O)C3C(c3cccc(Cl)c3)C2)c1 (stereo not drawn) | 46.2 µM (inactive) | 32.5 µM (inactive) | 32.7 µM (inactive) | 64.3 µM (inactive) | 23 µM (inactive) | 26.2 µM (inactive) | 58.9 µM (inactive) | 50.6 µM (inactive) | 21.8 µM (inactive) | 36.7 µM (inactive) | 36.3 µM (inactive) | 30.6 | 30.5 µM (inactive) | 37.6 µM (inactive) | 51.9 µM (inactive) | 25.9 µM (inactive) | 29.4 µM (inactive) | 12.8 µM (inactive) |  |
| CCOC(=O)C1C(=O)CC1(C)C (stereo not drawn) | > 10 µM (inactive) | > 10 µM (inactive) | > 10 µM (inactive) | > 10 µM (inactive) | > 10 µM (inactive) | > 10 µM (inactive) | > 10 µM (inactive) | > 10 µM (inactive) | > 10 µM (inactive) | > 10 µM (inactive) | > 10 µM (inactive) | > 10 | > 10 µM (inactive) | > 10 µM (inactive) | > 10 µM (inactive) | > 10 µM (inactive) | > 10 µM (inactive) | > 10 µM (inactive) |  |
| O=C1/C(=C/c2cccs2)N=C(c2ccccc2)N1c1nc2ccccc2s1 | 11.7 µM (inactive) | 14 µM (inactive) | > 100 µM (inactive) | > 100 µM (inactive) | > 100 µM (inactive) | 62.1 µM (inactive) | > 100 µM (inactive) | > 100 µM (inactive) | > 100 µM (inactive) | > 100 µM (inactive) | 14.1 µM (inactive) | 82.4 | 7.74 µM (inactive) | > 100 µM (inactive) | > 100 µM (inactive) | 36.3 µM (inactive) | 33.6 µM (inactive) |  | 4.14 µM (inactive) |
| Cc1ccc(-c2[nH]c(=O)n(C3OC(CO)C(O)C(O)C3O)c(=O)c2C#N)cc1 (stereo not drawn) | > 100 µM (inactive) | > 100 µM (inactive) | > 100 µM (inactive) | > 100 µM (inactive) |  | > 100 µM (inactive) | > 100 µM (inactive) | > 100 µM (inactive) | > 100 µM (inactive) | > 100 µM (inactive) | > 100 µM (inactive) | > 100 | > 100 µM (inactive) | > 100 µM (inactive) | > 100 µM (inactive) | > 100 µM (inactive) | 95.3 µM (inactive) | > 100 µM (inactive) | > 100 µM (inactive) |
| Nc1ccc(SC23CC4CC(CC(C4)C2)C3)cc1 |  | > 100 µM (inactive) | > 100 µM (inactive) | > 100 µM (inactive) | > 100 µM (inactive) | > 100 µM (inactive) | > 100 µM (inactive) | > 100 µM (inactive) | > 100 µM (inactive) | > 100 µM (inactive) | > 100 µM (inactive) | > 100 | 54.5 µM (inactive) | 92.7 µM (inactive) | > 100 µM (inactive) | > 100 µM (inactive) | > 100 µM (inactive) |  | > 100 µM (inactive) |
| Sc1ncc(-c2cncc(-c3cnc(S)nc3)n2)cn1 | > 100 µM (inactive) | > 100 µM (inactive) | > 100 µM (inactive) | > 100 µM (inactive) |  | > 100 µM (inactive) |  | > 100 µM (inactive) | > 100 µM (inactive) | > 100 µM (inactive) | > 100 µM (inactive) | > 100 | > 100 µM (inactive) | > 100 µM (inactive) | > 100 µM (inactive) | > 100 µM (inactive) | 85.1 µM (inactive) | > 100 µM (inactive) | > 100 µM (inactive) |
| C=CC(=O)N1C/C(=C\c2ccc(OC)cc2)C(=O)/C(=C/c2ccc(OC)cc2)C1 | 1.76 µM (inactive) | 3.22 µM (inactive) | 2.06 µM (inactive) | 3.64 µM (inactive) | 0.986 µM (active) | 2.88 µM (inactive) | 2.55 µM (inactive) | 7.18 µM (inactive) | 1.93 µM (inactive) | 2.01 µM (inactive) | 3.34 µM (inactive) | 1.56 | 3.51 µM (inactive) | 2.39 µM (inactive) | 0.69 µM (active) | 0.78 µM (active) | 0.67 µM (active) | 2.36 µM (inactive) |  |
| OC(c1ccccc1)C(F)(F)c1nc2ccccc2o1 (stereo not drawn) | 57.3 µM (inactive) | > 100 µM (inactive) | 82 µM (inactive) | > 100 µM (inactive) | > 100 µM (inactive) | > 100 µM (inactive) | > 100 µM (inactive) | > 100 µM (inactive) | > 100 µM (inactive) | > 100 µM (inactive) | > 100 µM (inactive) | > 100 | > 100 µM (inactive) | > 100 µM (inactive) | > 100 µM (inactive) | > 100 µM (inactive) | > 100 µM (inactive) | > 100 µM (inactive) |  |
| CCOC(=O)C(C)c1nc2c(Cl)c3ncccc3cc2[nH]c1=O (stereo not drawn) | 31.4 µM (inactive) | 69.5 µM (inactive) | 84.5 µM (inactive) | > 100 µM (inactive) | > 100 µM (inactive) | 36.5 µM (inactive) | 34.1 µM (inactive) | > 100 µM (inactive) | 43.8 µM (inactive) | 77.1 µM (inactive) | 23.2 µM (inactive) | 57.3 | 41 µM (inactive) | 79.8 µM (inactive) |  | 30.7 µM (inactive) | 12.9 µM (inactive) | 57.9 µM (inactive) | 50.7 µM (inactive) |
| O=c1cccc(Cl)[nH]1 | > 100 µM (inactive) | > 100 µM (inactive) | > 100 µM (inactive) | > 100 µM (inactive) | > 100 µM (inactive) | > 100 µM (inactive) | > 100 µM (inactive) | > 100 µM (inactive) | > 100 µM (inactive) | > 100 µM (inactive) | > 100 µM (inactive) | > 100 | > 100 µM (inactive) | > 100 µM (inactive) |  | > 100 µM (inactive) | > 100 µM (inactive) | > 100 µM (inactive) | > 100 µM (inactive) |
